This passage reports IC50 results from patent US20240116985A1, “STAPLED PEPTIDES AND METHODS THEREOF” (priority 2020, published 2024).

Read-outs that look alike come from different tables or passages of the source.

In experiment [1] the target is T1, beta-catenin/TCF4 engagement (Homo sapiens, UniProt P35222).
T1 construct: expressed in transfected cells; host or cells: HEK293
T1 sequence (P35222 1-781): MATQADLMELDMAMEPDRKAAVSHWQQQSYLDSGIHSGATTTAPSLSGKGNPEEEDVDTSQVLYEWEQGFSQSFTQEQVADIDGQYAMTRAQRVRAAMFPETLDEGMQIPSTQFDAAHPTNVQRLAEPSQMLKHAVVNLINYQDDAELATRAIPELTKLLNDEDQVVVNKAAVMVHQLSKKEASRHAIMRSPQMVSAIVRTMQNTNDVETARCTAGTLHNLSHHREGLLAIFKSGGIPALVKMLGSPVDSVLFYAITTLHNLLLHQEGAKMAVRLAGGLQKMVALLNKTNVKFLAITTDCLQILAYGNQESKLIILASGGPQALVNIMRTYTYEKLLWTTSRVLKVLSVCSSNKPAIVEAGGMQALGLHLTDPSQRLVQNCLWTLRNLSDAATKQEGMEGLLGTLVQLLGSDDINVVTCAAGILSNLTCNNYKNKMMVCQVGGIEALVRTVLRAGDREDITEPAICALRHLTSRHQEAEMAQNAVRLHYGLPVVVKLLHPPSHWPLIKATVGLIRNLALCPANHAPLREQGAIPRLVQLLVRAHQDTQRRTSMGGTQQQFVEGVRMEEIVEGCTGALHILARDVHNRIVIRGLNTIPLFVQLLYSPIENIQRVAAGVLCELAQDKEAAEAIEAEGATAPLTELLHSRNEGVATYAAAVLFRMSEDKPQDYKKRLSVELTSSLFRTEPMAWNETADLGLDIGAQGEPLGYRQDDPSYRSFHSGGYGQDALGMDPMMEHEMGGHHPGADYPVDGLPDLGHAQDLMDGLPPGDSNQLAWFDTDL
The experiment is described as follows: Nano-BRET target engagement assay (B-cat-Halo & TCF4-Luc in HEK293 cells). Conditions: absolute IC50; read-out: NanoBRET Abs IC50. The class given is cell-based. Background: In BRET a luciferase serves as donor, and the signal depends on an acceptor being close.

Experiment [2] deals with T2, full-length beta-Catenin (Uniprot ID P35222) (Homo sapiens, UniProt P35222).
T2 construct: 10 nM full-length beta-Catenin (Uniprot ID P35222)
T2 sequence (P35222 1-781): T1 sequence (P35222 1-781)
The experiment is described as follows: Fluorescence polarization IC50 (beta-catenin / 5FAM-TCF4 10-53 competition). The class given is binding. To be noted: fluorescence polarization. In general terms: In fluorescence polarisation assays a small probe gives low polarisation when free and higher when bound to something large.

Where [3] appears, read: beta-catenin, read-out: FP EC50.

As for `CC(=O)N1CCC[C@]12CC=CCCCC1(CCCC=CCCCOC(=O)N3CC[C@@](C(=O)N[C@@H](Cc4ccsc4)C(=O)N[C@@H](Cc4csc5ccccc45)C(=O)N[C@@H](CCC(N)=O)C(N)=O)(C3)NC(=O)[C@H](CC(C)C)NC(=O)[C@H](Cc3ccccc3)NC(=O)[C@H](C)NC(=O)[C@H](C)NC(=O)[C@H](CCC(N)=O)NC(=O)[C@H](CC(=O)O)NC1=O)NC(=O)[C@H](CC(C)(C)C)NC(=O)[C@H](CC(=O)O)NC2=O` (stereo partly drawn) [I-1440, Ac-PL3-Asp-Npg-B5-Asp-Gln-Ala-Ala-Phe-Leu-PyrS2-3Thi-BztA-Gln-NH2], the IC50 in experiment [1] was found to be 20700 nM; in experiment [2] (read-out: beta-Catenin FP IC50), 26 nM.
Take `CC(=O)N1CCC[C@]12CC=CCCCC1(CCCC=CCCCOC(=O)N3CC[C@@](C(=O)N[C@@H](Cc4ccsc4)C(=O)N[C@@H](Cc4csc5ccccc45)C(=O)N[C@@H](CCC(N)=O)C(N)=O)(C3)NC(=O)[C@H](CC(C)C)NC(=O)[C@H](Cc3ccccc3)NC(=O)[C@H](C)NC(=O)[C@H](C)NC(=O)[C@H](CO)NC(=O)[C@H](CC(=O)O)NC1=O)NC(=O)[C@H](CC(C)(C)C)NC(=O)[C@H](CC(=O)O)NC2=O` (stereo partly drawn) [I-1443, Ac-PL3-Asp-Npg-B5-Asp-Ser-Ala-Ala-Phe-Leu-PyrS2-3Thi-BztA-Gln-NH2]: the IC50 in experiment [1] worked out at 9500 nM; in experiment [2] (read-out: beta-Catenin FP IC50) it was 24 nM.
Taken in the same sequence, the figures for `CC(=O)N1CCC[C@]12CC=CCCCC1(CCCC=CCCCOC(=O)N3CC[C@@](C(=O)N[C@@H](Cc4ccsc4)C(=O)N[C@@H](Cc4csc5ccccc45)C(=O)N[C@@H](CCC(N)=O)C(N)=O)(C3)NC(=O)[C@H](CC(C)C)NC(=O)[C@H](Cc3ccccc3)NC(=O)[C@H](C)NC(=O)[C@H](C)NC(=O)[C@H](Cc3cn(CC(=O)O)c4ccccc34)NC(=O)[C@H](CC(=O)O)NC1=O)NC(=O)[C@H](CC(C)(C)C)NC(=O)[C@H](CC(=O)O)NC2=O` (stereo partly drawn) [I-1445, Ac-PL3-Asp-Npg-B5-Asp-1AcAW-Ala-Ala-Phe-Leu-PyrS2-3Thi-BztA-Gln-NH2] were 11100 nM and 13 nM.
Taken in the same sequence, the figures for `CC(=O)N1CCC[C@]12CC=CCCCC1(CCCC=CCCCOC(=O)N3CC[C@@](C(=O)N[C@@H](Cc4ccccc4Cl)C(=O)N[C@@H](Cc4csc5ccccc45)C(=O)N[C@@H](CCC(N)=O)C(N)=O)(C3)NC(=O)[C@H](CC(N)=O)NC(=O)[C@H](Cc3ccccc3)NC(=O)[C@H](C)NC(=O)[C@H](C)NC(=O)[C@H](CN(CCCC(F)(F)F)CC(=O)O)NC(=O)[C@H](CC(=O)O)NC1=O)NC(=O)[C@H](CC(C)(C)C)NC(=O)[C@H](CC(=O)O)NC2=O` (stereo partly drawn) [I-1446, Ac-PL3-Asp-Npg-B5-Asp-[Tfb]GA-Ala-Ala-Phe-Asn-PyrS2-2C1F-BztA-Gln-NH2] were 35200 nM and 9 nM.
The like results for `CC(=O)N1CCC[C@]12CC=CCCCC1(CCCC=CCCCOC(=O)N3CC[C@@](C(=O)N[C@@H](Cc4ccccc4Cl)C(=O)N[C@@H](Cc4csc5ccccc45)C(=O)N[C@@H](CCC(N)=O)C(N)=O)(C3)NC(=O)[C@H](CC(N)=O)NC(=O)[C@H](Cc3ccccc3)NC(=O)[C@H](C)NC(=O)[C@H](C)NC(=O)[C@H](CN(CC(=O)O)Cc3ccccc3)NC(=O)[C@H](CC(=O)O)NC1=O)NC(=O)[C@H](CC(C)(C)C)NC(=O)[C@H](CC(=O)O)NC2=O` (stereo partly drawn) [I-1447, Ac-PL3-Asp-Npg-B5-Asp-[Bn]GA-Ala-Ala-Phe-Asn-PyrS2-2C1F-BztA-Gln-NH2] were, in that order, 43400 nM and 11 nM.
Take `CC(=O)N1CCC[C@]12CC=CCCCC1(CCCC=CCCCOC(=O)N3CC[C@@](C(=O)N[C@@H](Cc4ccccc4Cl)C(=O)N[C@@H](Cc4csc5ccccc45)C(=O)N[C@@H](CCC(N)=O)C(N)=O)(C3)NC(=O)[C@H](CC(N)=O)NC(=O)[C@H](Cc3ccccc3)NC(=O)[C@H](C)NC(=O)[C@H](C)NC(=O)[C@H](CN(CC(=O)O)Cc3c(F)c(F)c(F)c(F)c3F)NC(=O)[C@H](CC(=O)O)NC1=O)NC(=O)[C@H](CC(C)(C)C)NC(=O)[C@H](CC(=O)O)NC2=O` (stereo partly drawn) [I-1449, Ac-PL3-Asp-Npg-B5-Asp-[Pfbn]GA-Ala-Ala-Phe-Asn-PyrS2-2C1F-BztA-Gln-NH2]: the IC50 amounted to 29300 nM in experiment [1], 16 nM in experiment [2] (setting [3]) and 16 nM in experiment [2] (read-out: beta-Catenin FP IC50).
Turning to `CC(=O)N1CCC[C@]12CC=CCCCC1(CCCC=CCCCOC(=O)N3CC[C@@](C(=O)N[C@@H](Cc4ccccc4Cl)C(=O)N[C@@H](Cc4csc5ccccc45)C(=O)N[C@@H](CCC(N)=O)C(N)=O)(C3)NC(=O)[C@H](CC(N)=O)NC(=O)[C@H](Cc3ccccc3)NC(=O)[C@H](C)NC(=O)[C@H](C)NC(=O)[C@H](CN(CC(=O)O)C(C)C)NC(=O)[C@H](CC(=O)O)NC1=O)NC(=O)[C@H](CC(C)(C)C)NC(=O)[C@H](CC(=O)O)NC2=O` (stereo partly drawn) [I-1451, Ac-PL3-Asp-Npg-B5-Asp-[iPr]GA-Ala-Ala-Phe-Asn-PyrS2-2C1F-BztA-Gln-NH2], the figures for the IC50 in experiment [1] and in experiment [2] (read-out: beta-Catenin FP IC50) were 26200 nM and 13 nM, respectively.
In the case of `CC(=O)N1CCC[C@]12CC=CCCCC1(CCCC=CCCCCCC[C@@](C)(C(=O)N[C@@H](Cc3ccsc3)C(=O)N[C@@H](Cc3csc4ccccc34)C(=O)N[C@@H](CCC(N)=O)C(N)=O)NC(=O)[C@H](CC(N)=O)NC(=O)[C@H](Cc3ccccc3)NC(=O)[C@H](C)NC(=O)[C@H](C)NC(=O)[C@H](CN(CCCC(F)(F)F)CC(=O)O)NC(=O)[C@H](CC(=O)O)NC1=O)NC(=O)[C@H](CC(C)(C)C)NC(=O)[C@H](CC(=O)O)NC2=O` (stereo partly drawn) [I-1454, Ac-PL3-Asp-Npg-B5-Asp-[Tfb]GA-Ala-Ala-Phe-Asn-S8-3Thi-BztA-Gln-NH2], the IC50 in experiment [1] is 26800 nM; in experiment [2] (setting [3]) it was 22 nM; in experiment [2] (read-out: beta-Catenin FP IC50), 22 nM.
With `CC(=O)N1CCC[C@]12CC=CCCCC1(CCCC=CCCCCCC[C@@](C)(C(=O)N[C@@H](Cc3ccsc3)C(=O)N[C@@H](Cc3csc4ccccc34)C(=O)N[C@@H](CCC(N)=O)C(N)=O)NC(=O)[C@H](CC(N)=O)NC(=O)[C@H](Cc3ccccc3)NC(=O)[C@H](C)NC(=O)[C@H](C)NC(=O)[C@H](CN(CCCC(F)(F)F)CC(=O)O)NC(=O)[C@H](CC(=O)O)NC1=O)NC(=O)[C@H](CC(C)(C)C)NC(=O)[C@H](CC(=O)O)NC2=O` (stereo partly drawn) [I-1455, Ac-PL3-Asp-Npg-B5-Asp-[Tfb]GA-Ala-Ala-Phe-Asn-S8-3Thi-BztA-Gln-NH2], the values for the IC50 in experiment [1], in experiment [2] (setting [3]) and in experiment [2] (read-out: beta-Catenin FP IC50) were 23100 nM, 13 nM and 13 nM, respectively.
With `CC(=O)N1CCC[C@]12CC=CCCCC1(CCCC=CCCCCCC[C@@](C)(C(=O)N[C@@H](Cc3ccsc3)C(=O)N[C@@H](Cc3csc4ccccc34)C(=O)N[C@@H](CCC(N)=O)C(N)=O)NC(=O)[C@H](CC(N)=O)NC(=O)[C@H](Cc3ccccc3)NC(=O)[C@H](C)NC(=O)[C@H](C)NC(=O)[C@H](CN(CC(=O)O)Cc3ccccc3)NC(=O)[C@H](CC(=O)O)NC1=O)NC(=O)[C@H](CC(C)(C)C)NC(=O)[C@H](CC(=O)O)NC2=O` (stereo partly drawn) [I-1456, Ac-PL3-Asp-Npg-B5-Asp-[Bn]GA-Ala-Ala-Phe-Asn-S8-3Thi-BztA-Gln-NH2], the IC50 in experiment [1] came out at 23700 nM; in experiment [2] (read-out: beta-Catenin FP IC50), 16 nM.
Taken in the same sequence, the figures for `CC(=O)N1CCC[C@]12CC=CCCCC1(CCCC=CCCCOC(=O)N3CC[C@@](C(=O)N[C@@H](Cc4ccccc4Cl)C(=O)N[C@@H](Cc4csc5ccccc45)C(=O)N[C@@H](CCC(N)=O)C(N)=O)(C3)NC(=O)[C@H](CC(N)=O)NC(=O)[C@H](Cc3ccccc3)NC(=O)[C@H](C)NC(=O)[C@H](C)NC(=O)[C@H](CNCCC(F)(F)F)NC(=O)[C@H](CC(=O)O)NC1=O)NC(=O)[C@H](CC(C)(C)C)NC(=O)[C@H](CC(=O)O)NC2=O` (stereo partly drawn) [I-1457, Ac-PL3-Asp-Npg-B5-Asp-[Tfp]Dap-Ala-Ala-Phe-Asn-PyrS2-2C1F-BztA-Gln-NH2] were above 20000 nM and 43 nM.
The like results for `CC(=O)N1CCC[C@]12CC=CCCCC1(CCCC=CCCCCCC[C@@](C)(C(=O)N[C@@H](Cc3ccccc3)C(=O)N[C@@H](Cc3csc4ccccc34)C(=O)N[C@@H](CCC(N)=O)C(N)=O)NC(=O)[C@H](CCC(N)=O)NC(=O)[C@H](Cc3ccccc3)NC(=O)[C@H](C)NC(=O)[C@H](C)NC(=O)[C@H](CCC(=O)O)NC(=O)[C@H](CC(=O)O)NC1=O)NC(=O)[C@H](CC(C)C)NC(=O)[C@H](CC(=O)O)NC2=O` (stereo partly drawn) [I-1458, Ac-PL3-Asp-Leu-B5-Asp-Glu-Ala-Ala-Phe-Gln-S8-Phe-BztA-Gln-NH2] were, in that order, 18100 nM and 26 nM.
`CC(=O)N1CCC[C@]12CC=CCCCC1(CCCC=CCCCOC(=O)N3CC[C@@](C(=O)N[C@@H](Cc4ccsc4)C(=O)N[C@@H](Cc4csc5ccccc45)C(=O)N[C@@H](CCC(N)=O)C(N)=O)(C3)NC(=O)[C@H](CC(C)C)NC(=O)[C@H](Cc3ccccc3)NC(=O)[C@H](C)NC(=O)[C@H](C)NC(=O)[C@H](CC(=O)O)NC(=O)[C@H](CC(=O)O)NC1=O)NC(=O)[C@H](CCCCNC(=O)COCCOCCNC(=O)CC[C@@H](C)[C@H]1CC[C@H]3[C@@H]4CC[C@@H]5C[C@H](O)CC[C@]5(C)[C@H]4CC[C@]13C)NC(=O)[C@H](CC(=O)O)NC2=O` (stereo partly drawn) [I-1470, Ac-PL3-Asp-[lithocholate-PEG2]-Lys-B5-Asp-Asp-Ala-Ala-Phe-Leu-PyrS2-3Thi-BztA-Gln-NH2]: the results for the IC50 in experiment [1] and in experiment [2] (read-out: beta-Catenin FP IC50) were above 20000 nM and 57 nM, respectively.
